Experimental data from ChEMBL document CHEMBL4000229, “Structure-activity relationships of diverse xanthones against multidrug resistant human tumor cells” (Bioorg Med Chem Lett, 2017).

What was measured:
Type in all cases: functional, cell-based
SMMC-7721 = assay: Cytotoxicity against Taxol-resistant human SMMC7721 cells measured after 48 hrs by MTT assay; settings: SMMC-7721, 48 h
A549 = assay: Cytotoxicity against Taxol-resistant human A549 cells measured after 48 hrs by MTT assay; settings: A549, 48 h
NCI/ADR-RES = assay: Cytotoxicity against human MCF7/ADR cells measured after 48 hrs by MTT assay

| SMILES | IC50 (SMMC-7721) [µM] | IC50 (A549) [µM] | IC50 (NCI/ADR-RES) [µM] |
| --- | --- | --- | --- |
| COc1c(O)cc2oc3ccc(O)cc3c(=O)c2c1O | 48.9 | 167 | > 200 |
| COc1cc(O)c2c(=O)c3cc(O)ccc3oc2c1 | 87.4 | 104 | 31.8 |
| O=c1c2cc(O)ccc2oc2cc(O)cc(O)c12 | 38.5 | 146 | 193 |
| O=c1c2cc(O)ccc2oc2cccc(O)c12 | 60.4 | > 200 | > 200 |
| COc1cc(OC)c2c(=O)c3c(O)cccc3oc2c1OC | 50.9 | 34.6 | 59.1 |
| COc1cc2c(=O)c3c(O)c(OC)c(O)cc3oc2cc1O | 102 | > 200 | > 200 |
| COc1c(O)cc2oc3cccc(O)c3c(=O)c2c1O | 43.8 | > 200 | > 200 |
| COc1c(O)cc(OC)c2c(=O)c3c(O)cccc3oc12 | 14.7 | 25.6 | 30.4 |
| COc1ccc2oc3ccc(O)cc3c(=O)c2c1OC | 81.8 | 178 | 53.5 |
| COc1c(O)ccc2oc3ccc(O)cc3c(=O)c12 | 56.3 | 37.1 | 109 |
| COc1cc(O)c2c(=O)c3cc(O)ccc3oc2c1OC | 63 | 62.3 | 57.3 |
| COc1ccc2oc3ccc(O)c(OC)c3c(=O)c2c1 | 83.7 | 35.2 | 102 |
| COc1ccc(O)c2c(=O)c3cc(O)ccc3oc12 | 15.1 | 38.9 | 185 |
